Assay results reported in paper PMC4326221 (Science translational medicine, 2014).
Several values for one entry are separate records, joined by “and”; a condition that tells them apart may be missing. Identical values can stand only once.

Key:
[1] = test system: GTP-bound KRAS in mouse lung cancer cells (M3L2); assay: KRAS-GTP pull-down with RAF-1 RBD beads; format: cell-based; settings: 48 h
[2] = test system: HRAS, KRAS and RAP1A prenylation in U2OS cells expressing Flag-KRAS G12D; assay: cell fractionation assay of protein prenylation; format: cell-based; settings: 48 h, BPH-1222 10 μM, BPH-714 10 μM, zoledronate 20 μM
[3] = test system: CHOP, BiP, LC3 in mouse lung cancer cells (6#); assay: ER stress and autophagy markers by immunoblotting; format: cell-based
[4] = pharmacokinetics test; format: in vivo; settings: single i.v. injection 5 mg/kg, female SD rats
[5] = target: T1, human GGPPS (Homo sapiens, UniProt O95749); assay: GGPPS enzymatic inhibition assay; format: biochemical; settings: read-out: GGPPS Ki, in vitro
T1 sequence (O95749 1-300): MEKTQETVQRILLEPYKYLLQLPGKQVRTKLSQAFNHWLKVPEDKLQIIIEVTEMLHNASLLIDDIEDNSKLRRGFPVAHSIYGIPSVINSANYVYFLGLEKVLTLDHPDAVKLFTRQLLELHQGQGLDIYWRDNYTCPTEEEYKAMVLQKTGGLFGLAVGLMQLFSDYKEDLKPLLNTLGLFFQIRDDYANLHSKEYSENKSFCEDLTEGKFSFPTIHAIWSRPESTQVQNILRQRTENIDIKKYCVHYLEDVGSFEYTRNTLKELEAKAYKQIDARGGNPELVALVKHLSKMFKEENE

[6] = test system: Mouse lung cancer cells (6#); assay: drug treatment of 6# cells, phase-contrast microscopy; format: cell-based; settings: for effect on cell proliferation / cell death: FTI-277 15 μM, GGTI-298 15 μM, BPH-1222 10 μM
[7] = test system: FPPS; settings: cited from earlier work
[8] = test system: p70 S6 kinase and 4E-BP1 phosphorylation in mouse lung cancer cells (6#); assay: mTOR substrate phosphorylation by immunoblotting; format: cell-based; settings: 6# cells, rapamycin 0.1 μM, 48 h
[9] = test system: KRAS tumors; assay: zoledronate plus rapamycin in vivo; settings: fig. S4D, E

Structure (SMILES): CCCCCCCCn1cc[n+](CC(O)(P(=O)([O-])O)P(=O)(O)O)c1 (centres unmarked) [BPH-1222]
- amount of GTP-bound KRAS [1]: greatly reduced the amount of GTP-bound KRAS
- inhibition of protein farnesylation and geranylgeranylation (HRAS degradation, RAP1A dislodgement) [2]: robustly inhibited protein farnesylation as well as protein geranylgeranylation
- ER stress markers CHOP and BiP protein levels ([3]; 6# cells, 10 μM, 1, 2, or 3 days): potently induced
- time to autophagy induction (accumulation of PE-conjugated LC3) ([3]; tumor cells treated with BPH-1222): 2 to 3 days
- pharmacokinetic properties [4]: good pharmacokinetic properties
- Ki [5]: ~300 nM and 300 nM

Structure (SMILES): COC(=O)[C@H](CCSC)NC(=O)c1ccc(NC[C@@H](N)CS)cc1-c1ccccc1 [FTI-277]
- effect on cell proliferation / cell death [6]: little effect on cell proliferation

Structure (SMILES): CC(C)=CCC/C(C)=C/CC/C(C)=C/CC/C(C)=C/CO [GGOH, geranylgeraniol]
- rescue from bisphosphonate-induced cell death ([6]; supplementation 10 μM with BPH-1222 10 μM, 48 h): substantially rescued cells

Structure (SMILES): COC(=O)[C@H](CC(C)C)NC(=O)c1ccc(NC[C@@H](N)CS)cc1-c1cccc2ccccc12 [GGTI-298]
- effect on cell proliferation / cell death [6]: little effect on cell proliferation

Structure (SMILES): NCCCC(O)(P(=O)(O)O)P(=O)(O)O [alendronate]
- FPPS inhibition [7]: inhibit FPPS

Structure (SMILES): CO[C@H]1C[C@@H]2CC[C@@H](C)[C@@](O)(O2)C(=O)C(=O)N2CCCC[C@H]2C(=O)O[C@H]([C@H](C)C[C@@H]2CC[C@@H](O)[C@H](OC)C2)CC(=O)[C@H](C)/C=C(\C)[C@@H](O)[C@@H](OC)C(=O)[C@H](C)C[C@H](C)/C=C/C=C/C=C/1C [rapamycin]
- phosphorylation of mTOR substrates (p70 S6 kinase and 4E-BP1) [8]: potently blocked phosphorylation

Structure (SMILES): O=P(O)(O)C(O)(Cc1cccnc1)P(=O)(O)O [risedronate]
- FPPS inhibition [7]: inhibit FPPS

Structure (SMILES): O=P(O)(O)C(O)(Cn1ccnc1)P(=O)(O)O [zoledronate]
- synergy with rapamycin for killing KRAS tumors [9]: synergizes with rapamycin in vivo
- FPPS inhibition [7]: inhibit FPPS
